Data as given in the CheMixHub viscosity set.
Where “and” joins values, the source holds several entries; their conditions need not be identical. Equal entries are not always repeated.

Assay: xn = mol fraction of the nth substance listed

CCCCN + O
viscosity
Settings	298.15 K	303.15 K	308.15 K	313.15 K	318.15 K	323.15 K
100 kPa, x1 = 0.1	–	1.869 mPa·s	–	1.43 mPa·s	–	1.133 mPa·s
100 kPa, x1 = 0.2	–	2.115 mPa·s	–	1.604 mPa·s	–	1.25 mPa·s
100 kPa, x1 = 0.3	–	1.933 mPa·s	–	1.462 mPa·s	–	1.143 mPa·s
100 kPa, x1 = 0.4	–	1.597 mPa·s	–	1.234 mPa·s	–	0.979 mPa·s
100 kPa, x1 = 0.5	–	1.273 mPa·s	–	0.996 mPa·s	–	0.808 mPa·s
100 kPa, x1 = 0.6	–	0.993 mPa·s	–	0.796 mPa·s	–	0.654 mPa·s
100 kPa, x1 = 0.7	–	0.786 mPa·s	–	0.649 mPa·s	–	0.547 mPa·s
100 kPa, x1 = 0.8	–	0.626 mPa·s	–	0.533 mPa·s	–	0.453 mPa·s
100 kPa, x1 = 0.9	–	0.541 mPa·s	–	0.454 mPa·s	–	0.393 mPa·s
101.33 kPa, x1 = 0.0001	–	0.8019 mPa·s	0.7212 mPa·s	0.6564 mPa·s	0.6007 mPa·s	0.5542 mPa·s
101.33 kPa, x1 = 0.1	2.372 mPa·s	1.885 mPa·s	1.642 mPa·s	1.574 mPa·s and 1.441 mPa·s	1.278 mPa·s	1.142 mPa·s
101.33 kPa, x1 = 0.1998	–	2.149 mPa·s	1.861 mPa·s	1.625 mPa·s	1.433 mPa·s	1.271 mPa·s
101.33 kPa, x1 = 0.2	2.685 mPa·s	–	–	1.742 mPa·s	–	–
101.33 kPa, x1 = 0.2999	–	1.964 mPa·s	1.707 mPa·s	1.494 mPa·s	1.318 mPa·s	1.172 mPa·s
101.33 kPa, x1 = 0.3999	–	1.601 mPa·s	1.405 mPa·s	1.242 mPa·s	1.111 mPa·s	0.9871 mPa·s
101.33 kPa, x1 = 0.4	2.006 mPa·s	–	–	1.353 mPa·s	–	–
101.33 kPa, x1 = 0.5	–	1.259 mPa·s	1.118 mPa·s	0.9974 mPa·s	0.8979 mPa·s	0.8131 mPa·s
101.33 kPa, x1 = 0.5997	–	0.9797 mPa·s	0.8813 mPa·s	0.7976 mPa·s	0.726 mPa·s	0.6647 mPa·s
101.33 kPa, x1 = 0.6	1.153 mPa·s	–	–	0.842 mPa·s	–	–
101.33 kPa, x1 = 0.7	–	0.7677 mPa·s	0.701 mPa·s	0.6419 mPa·s	0.5911 mPa·s	0.5472 mPa·s
101.33 kPa, x1 = 0.7999	–	0.6277 mPa·s	0.5795 mPa·s	0.5366 mPa·s	0.4994 mPa·s	0.4656 mPa·s
101.33 kPa, x1 = 0.8	0.686 mPa·s	–	–	0.54 mPa·s	–	–
101.33 kPa, x1 = 0.9001	–	0.5178 mPa·s	0.4829 mPa·s	0.4518 mPa·s	0.4243 mPa·s	0.399 mPa·s

CC[N+](CC)(CC)Cc1ccccc1.[Cl-] + O
viscosity [mPa·s], 100 kPa
Settings	298.15 K	303.15 K	308.15 K	313.15 K	318.15 K
x1 = 8e-05	0.8929	0.7989	0.7209	0.6322	0.5462
x1 = 0.0002	0.8948	0.8015	0.7259	0.6354	0.5509
x1 = 0.0004	0.8991	0.8041	0.7284	0.6358	0.552

CCCCN + Cc1ccccc1C
303.15 K, 101 kPa
Settings	viscosity [mPa·s]
x1 = 0.0811	0.648
x1 = 0.1509	0.624
x1 = 0.2681	0.587
x1 = 0.3574	0.56
x1 = 0.4598	0.535
x1 = 0.546	0.518
x1 = 0.6419	0.499
x1 = 0.7306	0.484
x1 = 0.8169	0.469
x1 = 0.8974	0.457
x1 = 0.9503	0.45

CCCCN + C=C(C)C(=O)OC
303.15 K, 101 kPa
Settings	viscosity [mPa·s]
x2 = 0.1016	0.4525
x2 = 0.1939	0.4608
x2 = 0.3316	0.4724
x2 = 0.4989	0.4852
x2 = 0.5966	0.4921
x2 = 0.8001	0.5045
x2 = 0.9006	0.5097

[I-].[K+] + O
310.15 K, 101 kPa
Settings	viscosity [mPa·s]
x1 = 0.000916	0.6942
x1 = 0.001822	0.6976
x1 = 0.001827	0.7047
x1 = 0.002695	0.7079
x1 = 0.003679	0.7155
x1 = 0.005197	0.7273
x1 = 0.005988	0.7335
